Assay results taken from PubChem BioAssay AID2305 (GlaxoSmithKline (GSK), 2010).

system: P. falciparum 3D7 growth, pLDH absorbance; assay: P. falciparum 3D7 growth inhibition, dose response, strain 3D7 (AID 2305)

| SMILES | IC50 [nM] |
| --- | --- |
| COCc1ccccc1C(=O)NCCOc1cc(C)cc(C)c1 | 350 |
| Cc1cc(-c2ccc(NC(=O)N3CCc4cc(Br)c(N5CCN(C)CC5)cc43)cc2)cc(C)n1 | 1010 |
| CCOc1ccc(-c2nonc2NC(=O)c2ccc(OC)cc2)cc1OCC | 820 |
| N#Cc1c(N2CCCCCC2)nc(N)c2c(N)nc3c(c12)CC(=O)N3c1ccc(F)cc1 | 210 |
| COc1cc2nc(N3CCC(CNC(=O)c4ccc(-c5ccc(Cl)cc5)cc4)CC3)nc(N)c2cc1OC | 150 |
| O=S(=O)(Nc1cccc(CCN2CCCCC2CCN2CCCC2)c1)c1ccc(-c2ccccc2)cc1 (stereo not given) | 1090 |
| CN1CCN(c2ccnc3ccc(NC(=O)Nc4cccc5c(C#N)cccc45)cc23)CC1 | 1050 |
| CCN(CC)CCN(Cc1ccc(-c2ccc(C(F)(F)F)cc2)cc1)C(=O)Cn1c(CCc2ccc(F)cc2)nc(=O)c2ccccc21 | 1070 |
| Cc1ccccc1C1CCN(C2CCC(NC(=O)c3cc4cc(Cl)ccc4o3)CC2)CC1 (stereo not given) | 1200 |
| O=C(C=Cc1ccc(Cl)c(Cl)c1)NCCCCCN1CCC(CCCNS(=O)(=O)c2ccc(F)cc2)CC1 | 1020 |
| COc1cc2nc(N3CCC(CNC(=O)/C=C/c4cccc(C)c4)CC3)nc(N)c2cc1OC | 680 |
| COc1ccc2nccc([C@@H](O)CN3CCC(NCc4cc5c(F)ccc(F)c5[nH]4)CC3)c2c1 | 140 |
| O=S(=O)(Nc1ccc(-c2ccc(CN3CCCC3)cc2)cc1)c1cccc2cccnc12 | 1020 |
| COC(=O)c1cccc(CNCc2cccc(-c3csc(-c4nc5ccccc5[nH]4)c3)c2)c1 | 690 |
| Cc1cccc2[nH]c(-c3ccc(-c4ccc(C(=O)NCCN5CCCC5)cc4)s3)nc12 | 900 |
| CCOc1cc(C(=O)NCc2cc(Cl)cc(Cl)c2)ccc1-c1nc2ccc(Cl)cc2[nH]1 | 730 |
| CCCC(C)N(Cc1ccc(C(C)(C)C)cc1)C(=O)c1ccc(OC)cc1 (stereo not given) | 110 |
| COc1ccc(C=NNc2cc(C)nc3ccc(OC)cc23)c(OC)c1 | 780 |
| CN1CCC(N(Cc2ccc(-c3ccc(C(F)(F)F)cc3)nc2)C(=O)Cn2c(CCc3cccc(F)c3F)cc(=O)c3ccccc32)CC1 | 1100 |
| COc1cc2nccc(Nc3ccc4c(cnn4Cc4cccc(F)c4)c3)c2cc1OC | 240 |
| CON=C1CCC(Cn2ccnc2)(c2ccc(Cl)cc2Cl)CC1 (stereo not given) | 880 |
| Fc1cc(Cl)ccc1Nc1ccnc(Nc2ccc3cn[nH]c3c2)n1 | 740 |
| O=C(Nc1ccc(Br)c(Cl)c1)c1cc([N+](=O)[O-])cc2cn[nH]c12 | 1060 |
| CCCCCc1ccc(NC(=O)Nc2ccc(Cn3ncc(N4CCCNCC4)c(Cl)c3=O)cc2)cc1 | 1140 |

| SMILES | IC50 [nM] |
| --- | --- |
| O=C(CC(c1ccccc1)c1ccccc1O)N1CCOCC1 (stereo not given) | 1520 |
| c1cc(CNCC2CCN(CC3CCCCC3)CC2)cc(-n2ccnc2)c1 | 540 |
| Cc1ccc(C(=O)NC2CCN(CCNC(=O)Nc3cc(C)nc4ccccc34)CC2)cc1 | 490 |
| C[C@@H]1CN(c2cnn(Cc3ccc(NC(=O)Nc4ccc(F)cc4[N+](=O)[O-])cc3)c(=O)c2Cl)C[C@H](C)N1 | 810 |
| COc1ccccc1CCNC(=O)c1cnc(N2CCN(c3ccncc3)CC2)c(Cl)c1 | 1150 |
| Cc1ccc(C)c(Cn2c(N3CCC(C(=O)NCc4cccs4)CC3)nc3ccccc32)c1 | 940 |
| COc1ccc(C[C@H](C)NC[C@H](O)c2cccc(Cl)c2)cc1F | 990 |
| Cc1cccc2[nH]c(-c3ccc(-c4ccc(CN5CCN(CCC#N)CC5)cc4)cc3)nc12 | 860 |
| Cn1ncc2ccc(Nc3nccc(-c4ccc5c(c4)c(N)nn5C)n3)cc21 | 650 |
| CCCN1CCC2(CC1)NC(C(=O)NCCC(C)C)Cc1c2[nH]c2cc(Cl)ccc12 (stereo not given) | 1380 |
| COc1cc(N(C)Cc2cnc3nc(N)nc(N)c3n2)cc(OC)c1OC | 440 |
| Cn1cncc1-c1ccc2c(-c3ccsc3)cnc(N)c2c1 | 850 |
| O=C(C1CC1)N1c2ccccc2CCc2ccccc21 | 830 |
| O=C(Nc1cccc(CN2CCCN(Cc3ccc(O)cc3)CC2)c1)c1cc(F)cc(F)c1 | 660 |
| CC(=O)Nc1ccc(COc2ccc(Nc3ccnc4cc(-c5ccccn5)ccc34)cc2)cc1 | 200 |
| COc1cc(Nc2nccc(N3CCC(NC(=O)c4cc5ccccc5s4)C3)n2)cc(OC)c1OC (stereo not given) | 790 |
| CCN1CCC(N2CCC(C(=O)Nc3cccc(-c4cccc(Cl)c4)c3)CC2)CC1 | 1080 |
| CC(C)(C)c1ccccc1OC(=O)c1ccccc1 | 740 |
| C=C[C@]1(C)C[C@@H](OC(=O)c2n[nH]c3ccccc3c2=O)[C@]2(C)[C@H](C)CC[C@]3(CCC(=O)[C@H]32)[C@@H](C)[C@@H]1O | 670 |
| O=C(NC1CCN(Cc2ccccc2)CC1)c1cccc(-c2nc3ccc(Cl)cc3[nH]2)c1 | 860 |
| N#Cc1ccc2c(c1)CCN(CCC1CCC(NC(=O)/C=C/c3ccc4[nH]ccc4c3)CC1)CC2 (stereo not given) | 1060 |
| CCCCSc1nc2c(c(=O)n1Cc1ccco1)C1(CCCCC1)Cc1ccccc1-2 | 960 |
| COc1ccc(CNCc2ccsc2)cc1-c1ccc(S(=O)(=O)NCCN2CCCC2)c(C)c1 | 900 |
| O=C(NC1CCN(Cc2ccccc2)CC1)c1ccc(-c2nc3cc(Cl)c(F)cc3[nH]2)cc1 | 250 |

| SMILES | IC50 [nM] |
| --- | --- |
| OCCCCCCNc1nc(NCc2ccccc2-c2ccc(C(F)(F)F)cc2)nc(N2CCNCC2)n1 | 1440 |
| COc1cc2c(=O)c(Cc3ccc(Cl)cc3)c(C)[nH]c2cc1F | 1160 |
| CC(Nc1nc(Nc2ccc(F)cc2)nc(SCC(N)=O)n1)c1ccccc1 (stereo not given) | 500 |
| CC(C)NCc1ccc(-c2cccc(-c3nc4ccc(C(F)(F)F)cc4[nH]3)c2)cc1 | 260 |
| CC(=O)Oc1c(C2CCN(CCCCNC(=O)c3ccc(NC(=O)c4ccc(Cl)cc4)cc3)CC2)ccc2ccccc12 | 880 |
| CCCCCc1cc(O)c2c3c(c(=O)oc2c1)CN(C)CC3 | 120 |
| COc1ccccc1CCC(C)(C)NC(=O)CC(CCc1ccccc1)Nc1ccc(C#N)c2ccccc12 (stereo not given) | 920 |
| COC(=O)C(NC(=O)NC1CCN(c2ccnc(Nc3ccc(F)cc3)n2)C1)c1ccccc1 (stereo not given) | 1050 |
| COc1ccc(-c2ccc(NC(=O)c3ccc(C#N)cc3)cc2)cc1CN1CCCN(C)CC1 | 150 |
| COc1cccc(C(=O)N2CCN(Cc3cccc(NC(=O)c4cccs4)c3)CC2)c1 | 480 |
| Cc1cc(NN=Cc2ccccc2Cl)c2cc(F)ccc2n1 | 750 |
| COc1ccc(C(=O)NC2CCN(c3ccnc4cc(Cl)ccc34)C2)cc1 (stereo not given) | 230 |
| N#Cc1ccc(C=CC(=O)NC2CCC(CCN3CCc4ccc(-c5cnccn5)cc4CC3)CC2)cc1 (stereo not given) | 610 |
| CC(C)Nc1cc(C(=O)N[C@@H](Cc2ccccc2)[C@H](O)CNC2CCCCC2)cc(N2CCCCS2(=O)=O)c1 | 100 |
| CC1Cc2ccccc2N1CC(=O)Nc1cc(C(F)(F)F)ccc1-n1cncn1 (stereo not given) | 320 |
| CO/C(=C\C=C\c1cc2cc(Cl)c(Cl)cc2[nH]1)C(=O)NCCCN1CCN(c2cccc(OCC(=O)Nc3cccc(C(=O)c4ccccc4)c3)c2)CC1 | 690 |
| N#Cc1ccc(NC2(C(=O)N3CCN(c4cccc(Cl)c4)CC3)CC2)c2ccccc12 | 1150 |
| CCOc1ccc(C(C)NC(=O)Nc2ccccc2)cc1OCC (stereo not given) | 900 |
| Nc1ncc(-c2cn[nH]c2)cc1-c1nc2ccc(F)cc2[nH]1 | 730 |
| CNCc1ccc2nc(-c3coc(Cc4cc(Cl)ccc4OCC(C)C)n3)[nH]c2c1 | 840 |
| CC(=O)Nc1ccc(OCCCCN(Cc2ccccc2C(F)(F)F)c2ccc(C#N)c(C(F)(F)F)c2)c(Cl)c1 | 980 |
| COc1cccc2[nH]c(NCCCNCc3cc(Br)cc(Br)c3)nc12 | 950 |
